Patent publication US11185520B2, “Composition comprising at least one water-soluble pharmaceutically acceptable salt of elafibranor having improved intestinal absorption” (NASHPHARM, priority 2016, dated 2021)
In brackets after ≈: the same amount, converted by molar mass. Several values for one entry are separate records, joined by “and”; a condition that tells them apart may be missing. Equal entries are not always repeated.

Legend:
[1] = system: non-alcoholic steatohepatitis NASH; conditions: cited from earlier work
[2] = Solubility test on various elafibranor salts; format: physicochemical; conditions: for Solubility in aqueous medium / Solubility: listed as Elafibranor (GFT505) Amorphous free basic
[3] = Thermodynamic solubility of elafibranor in aqueous medium; format: physicochemical
Description: The thermodynamic solubility of the basic elafibranor is studied over a period of 24 hours and 72 hours in various aqueous buffers in the presence or not of surfactants. Batch number EM0274L2 is used for this work. After 24 hours and 72 hours of incubation at ambient temperature (22°−24° C.), the solutions are sampled and then filtered over 0.2 μm polycarbonate filters in flasks for LCMS analyses, and diluting once in DMSO before stirring for 2 minutes (vortex or sonification).

[4] = all clinical trials; cited from earlier work
[5] = Buffer pH 4.6, ambient temperature (22-24° C.)
[6] = Buffer pH 7.4, ambient temperature (22-24° C.)
[7] = Buffer pH 8.5, ambient temperature (22-24° C.)
[8] = Polyethylene glycol 400, ambient temperature (22-24° C.)
[9] = Propylene glycol, ambient temperature (22-24° C.)

Solubility in aqueous medium ([2]; Buffer pH 4.6, ambient temperature): 0.044 mg/mL
Solubility in aqueous medium ([2]; Buffer pH 7.4, ambient temperature): 0.194 mg/mL
Solubility in aqueous medium ([2]; Buffer pH 8.5, ambient temperature): 1.701 mg/mL
Solubility ([2]; Polyethylene glycol 400, ambient temperature): 15.023 mg/mL
Solubility ([2]; Propylene glycol, ambient temperature): 12.905 mg/mL
Solubility (according to Ph. Eur.) ([2]; aqueous medium, ambient temperature, descriptive term): Very low solubility
Solubility after 24 hours [3, 5]: 0.044 mg/mL (≈ 0.114 mM)
Solubility after 72 hours [3, 5]: 110 μM and 0.042 mg/ml
Solubility after 24 hours [3, 6]: 0.194 mg/mL (≈ 0.505 mM)
Solubility after 72 hours [3, 6]: 0.234 mg/mL (≈ 0.609 mM)
Solubility after 24 hours [3, 7]: 1.701 mg/mL (≈ 4.42 mM)
Solubility after 72 hours [3, 7]: 1.644 mg/mL (≈ 4.28 mM)
Solubility after 24 hours [3, 8]: 15.023 mg/mL (≈ 39.1 mM)
Solubility after 72 hours [3, 8]: 15.774 mg/mL (≈ 41 mM)
Solubility after 24 hours [3, 9]: 12.905 mg/mL (≈ 33.6 mM)
Solubility after 72 hours [3, 9]: 13.506 mg/mL (≈ 35.1 mM)
Solubility in an aqueous medium ([3]; in words): low
Effect of addition of cosolvent on solubility ([3]; propylene glycol or PEG 400): significantly improves the solubility
SMILES: CSc1ccc(C(=O)/C=C/c2cc(C)c(OC(C)(C)C(=O)O)c(C)c2)cc1 [elafibranor, 2-[2,6 dimethyl-4-[3-[4-(methylthio)phenyl]-3-oxo-1(E)-propenyl]phenoxyl]-2-methylpropanoic acid]
Biochemical markers of hepatic malfunctioning (ALAT, ASAT, γGT, ALP) [1]: improvement
Tolerance profile [4]: very good tolerance profile
